Test results reported in patent publication US20080293572A1, “Herbicidal Mixtures” (BASF SE, priority 2005, published 2008).

Experiments:
Experiment in all cases: Greenhouse post-emergence herbicidal trial
ECHCG = format: in vivo, Echinochloa crus-galli; details: MSO or COC 1.25% where in mixture, scale 0-100
Description: (§1) The culture vessels used were plastic flowerpots filled, as substrate, with sandy loam comprising about 3% of humus. The seeds of the test plants were sown separated according to species.
(§2) For the post-emergence treatment, the test plants were initially cultivated to a height of 3-17 cm according to their habit and only then treated with the active compounds, which had been suspended or emulsified in water. To this end, the test plants were either sown directly and cultivated in the same vessels, or they were initially cultivated separately as seedlings and transplanted into the test vessels a few days prior to the treatment. According to the species, the plants were kept at temperatures of from 15° C. to 25° C. or from 20 to 35° C. The trial period extended over 3 weeks. During this time the plants were tended and their response to the individual treatments was evaluated.
(§3) The application in the greenhouse was carried out at a spray liquor application rate of 200 l/ha.

PANDI = format: in vivo, Panicum dichotomiflorum; details: PANDI; a) 25 g/ha, MSO or COC 1.25% where in mixture, scale 0-100
Description: as §1, §2, §3

PANMI = format: in vivo, Panicum milliaceum; details: PANMI; a) 12.5 g/ha, MSO or COC 1.25% where in mixture, scale 0-100
Description: as §1, §2, §3

SORBI = format: in vivo, Sorghum bicolor; details: SORBI; a) 25 g/ha, MSO or COC 1.25% where in mixture, scale 0-100
Description: as §1, §2, §3

SETVI = format: in vivo, Setaria viridis; details: SETVI; a) 12.5 g/ha, MSO or COC 1.25% where in mixture, scale 0-100
Description: as §1, §2, §3

AMBEL = format: in vivo, Ambrosia elatior; details: AMBEL; a) 3.125 g/ha, MSO or COC 1.25% where in mixture, scale 0-100
Description: as §1, §2, §3

HELAN = format: in vivo, Helianthus annua; details: HELAN; a) 6.25 g/ha, MSO or COC 1.25% where in mixture, scale 0-100
Description: as §1, §2, §3

SOLNI = format: in vivo, Solanum nigrum; details: SOLNI; a) 3.125 g/ha, MSO or COC 1.25% where in mixture, scale 0-100
Description: as §1, §2, §3

XANST = format: in vivo, Xanthium strumarium; details: XANST; a) 12.5 g/ha, MSO or COC 1.25% where in mixture, scale 0-100
Description: as §1, §2, §3

Q: Which results are given for `Cc1c(C(=O)c2cnn(C)c2O)ccc(S(C)(=O)=O)c1C1=NOCC1` [a)]?
A: observed effect (ECHCG; ECHCG; a) 12.5 g/ha): 0; observed effect (ECHCG; ECHCG; a) 25 g/ha): 0; observed effect (PANDI): 0; observed effect (PANMI): 75; observed effect (SORBI): 10; observed effect (SETVI): 60; observed effect (AMBEL): 60; observed effect (HELAN): 30; observed effect (SOLNI): 30; observed effect (XANST): 65
